The text below walks through data of the supplement of paper PMC11061612.

Experiment in all cases: Bliss excess, mean over the matrix (fraction); higher = more synergy
Test [1] relates to C32 (Melanoma). The method in brief:
(§1)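 Bliss excess equals the observed combination effect minus the expected value EA + EB − EA·EB, where EA and EB are the effects of each agent alone. Combination Emax is the second-highest inhibition within the matrix. Inhibition was scaled from CellTiter-Glo 2.0 luminescence, with 0 set by vehicle wells and 1 by blank wells, after 72 hours of two-drug dosing of cells plated in 1536-well plates.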

The test system of test [2] is MRK-nu-1 (Breast Carcinoma). The method in brief: as §1
The test system of test [3] is MG-63 (Osteosarcoma). The method, boiled down: as §1
In test [4] the test system is RPMI-8402 (T-Lymphoblastic Leukemia). The method in brief:
as §1

The test system of test [5] is SW1463 (Colorectal Carcinoma). The method, boiled down: as §1
In test [6] the test system is SBC-3 (Small Cell Lung Carcinoma). The method in brief:
as §1

Test [7] concerns MDA-MB-175-VII (Breast Carcinoma). The method, boiled down: as §1
Test [8] has as its system NCI-H1435 (Non-Small Cell Lung Carcinoma). The method, boiled down: as §1
Test [9] relates to COR-L105 (Lung Adenocarcinoma). The method, boiled down: as §1
Test [10] relates to L-363 (Plasma Cell Myeloma). The method in brief: as §1
In test [11] the test system is NCI-H2009 (Lung Adenocarcinoma). The method in brief: as §1
The test system of test [12] is KNS-62 (Squamous Cell Lung Carcinoma). The method in brief:
as §1

Test [13] relates to NCI-H2023 (Non-Small Cell Lung Carcinoma). The method in brief:
as §1

The test system of test [14] is OVKATE (Ovarian Carcinoma). The method in brief:
as §1

In test [15] the test system is BC-1 (B-Cell Non-Hodgkin's Lymphoma). The method, boiled down:
as §1

Test [16] has as its system SK-MEL-24 (Melanoma). The method, boiled down:
as §1

Test [17] relates to CAL-85-1 (Breast Carcinoma). The method, boiled down: as §1
Test [18] deals with GCIY (Gastric Carcinoma). The method, boiled down: as §1
Test [19] has as its system NCI-H2452 (Mesothelioma). The method in brief:
as §1

The test system of test [20] is A375 (Melanoma). The method, boiled down:
as §1

For the molecule `N#Cc1cnc(Nc2cc(NC[C@H]3CNCCO3)c(C(F)(F)F)cn2)cn1` [SRA737] + C=CCn1c(=O)c2cnc(Nc3ccc(N4CCN(C)CC4)cc3)nc2n1-c1cccc(C(C)(C)O)n1 [AZD1775] (first compound max 10 µM, partner max 1 µM), the Bliss excess in test [1] came out at 0.0397; in test [2], 0.0988; in [3], 0.0974; in [4], 0.0473; in test [5], 0.0027; in test [6], 0.155. The Bliss excess is -0.0073 in [7]; 0.0093 in test [8]; 0.031 in test [9]; 0.121 in test [10]; -0.011 in test [11]; 0.0171 in [12]. The Bliss excess is 0.0404 in test [13]; -0.0409 in [14]; 0.099 in [15]; -0.0375 in test [16]; -0.0283 in [17]; 0.033 in [18]. Moreover, the Bliss excess in test [19] is -0.0018; in [20] it was 0.0455.

`N#Cc1cnc(Nc2cc(NC[C@H]3CNCCO3)c(C(F)(F)F)cn2)cn1` [SRA737] + CCc1c2c(nc3ccc(O)cc13)-c1cc3c(c(=O)n1C2)COC(=O)[C@]3(O)CC [SN-38] (first compound max 10 µM, 7x7, partner max 0.3 µM): the Bliss excess in test [1] was -0.0762; in test [2] it was -0.128; in test [3], -0.0251; in test [4], -0.0209; in test [5] it was 0.0621; in test [6] it was -0.0632. Besides, the Bliss excess in [7] is -0.0418; in [8], -0.0243; in test [9], -0.035; in test [10], 0.0599; in [11], 0.0451; in test [12], -0.0387. Moreover, the Bliss excess in [13] was -0.0813; in test [14], -0.045; in [15] it was -0.0242; in [16], -0.0221; in test [17], -0.0479; in test [18], -0.0331. The Bliss excess was 0.0683 in test [19] and -0.0288 in test [20].

As to `N#Cc1cnc(Nc2cc(NC[C@H]3CNCCO3)c(C(F)(F)F)cn2)cn1` [SRA737] + Nc1ccn([C@@H]2O[C@H](CO)[C@@H](O)C2(F)F)c(=O)n1 [Gemcitabine] (first compound max 10 µM, 7x7, partner max 0.3 µM), the Bliss excess was -0.0986 in [1]; 0.0214 in [2]; 0.124 in test [3]; 0.0312 in test [4]; 0.0633 in [5]; 0.0064 in [6]. Moreover, the Bliss excess in test [7] was -0.0041; in [8], 0.0521; in test [9] it was -0.0009; in [10], 0.123; in [11], 0.125; in test [12] it was 0.0488. Moreover, the Bliss excess in [13] is 0.0332; in test [14] it was 0.0092; in test [15], 0.0426; in [16], 0.0307; in test [17] it was 0.0442; in [18] it was -0.0085. In addition, the Bliss excess in test [19] is 0.0892; in test [20] it was 0.0398.

With `N#Cc1cnc(Nc2cc(NC[C@H]3CNCCO3)c(C(F)(F)F)cn2)cn1` [SRA737] + O=c1[nH]cc(F)c(=O)[nH]1 [5-Fluorouracil] (first compound max 10 µM, 7x7, partner max 20 µM), the Bliss excess is -0.0343 in test [1]; 0.0291 in [2]; 0.0106 in test [3]; -0.0445 in [4]; -0.0006 in test [5]; -0.0447 in test [6]. Also, the Bliss excess is -0.0189 in [7]; -0.0012 in test [8]; -0.0048 in [9]; 0.0691 in [10]; 0.0125 in test [11]; 0.0235 in [12]. For the same molecule, the Bliss excess in test [13] is 0.0353; in [14] it was -0.0286; in test [15], -0.001; in test [16], -0.0047; in [17], 0.0703; in test [18] it was -0.0044. In addition, the figures for the Bliss excess in [19] and in [20] were 0.0571 and -0.0149, respectively.

`C[C@@H](c1ccc2nccn2c1)n1nnc2ncc(-c3cnn(C)c3)nc21` [Savolitinib] + CC1(C)CCC(CN2CCN(c3ccc(C(=O)NS(=O)(=O)c4ccc(NCC5CCOCC5)c([N+](=O)[O-])c4)c(Oc4cnc5[nH]ccc5c4)c3)CC2)=C(c2ccc(Cl)cc2)C1 [Venetoclax] (first compound max 1 µM, 7x7, partner max 1 µM): the Bliss excess in test [1] was -0.0338; in [2] it was 0.0851; in test [3] it was -0.0157; in test [4] it was -0.0218; in test [5], -0.0339; in test [6], -0.0435. Further, the Bliss excess in test [7] is -0.013; in test [8], -0.0034; in [9], -0.0423; in test [10] it was -0.0159; in [11], -0.041; in test [12], -0.0616. Besides, the Bliss excess in test [13] was -0.0161; in test [14], -0.0495; in test [15], 0.0031; in [16], -0.0805; in [17], -0.0468; in test [18], -0.0732. In addition, the Bliss excess was -0.0714 in test [19] and -0.0463 in [20].

Consider `C[C@@H](c1ccc2nccn2c1)n1nnc2ncc(-c3cnn(C)c3)nc21` [Savolitinib] + Cc1c2c(nn1C)CSCc1cc(n(C)n1)CSc1cc(c3ccccc3c1)OCCCc1c(C(=O)O)n(C)c3c-2c(Cl)ccc13 [AZD5991] (first compound max 1 µM, 7x7, partner max 1 µM), for which the Bliss excess in test [1] was -0.0065; in test [2] it was 0.0344; in [3], 0.0065; in [4] it was -0.132; in test [5] it was -0.0109; in [6], -0.0321. Also, the Bliss excess in [7] was -0.0244; in test [8], -0.0263; in test [9] it was -0.0086; in [10] it was -0.0203; in test [11] it was -0.0063; in test [12] it was -0.0471. In addition, the Bliss excess in test [13] was -0.0323; in test [14], -0.0434; in test [15], -0.0076; in [16], -0.0519; in test [17], -0.0286; in test [18], -0.0423. For the same molecule, the Bliss excess in test [19] was -0.109; in test [20], -0.0271.
